Reference: US5538981A, “Tetrahydro-pyrido-indole” (Eli Lilly and Company, priority 1995, dated 1996)
Where a name gives a salt, the structure may show the parent alone.

Legend:
5-HT2 receptor = molecular target: T1, 5-HT2 receptor (Rattus norvegicus, UniProt P14842); test: 5-HT2 receptor radioligand binding displacement assay ([3H]ketanserin, cerebral cortex); design: species or system rat (male Sprague-Dawley); conditions: tritiated ketanserin 1 nM, pH 7.4, 37° C., 30 min, values over 100 nM accumulated before concentration range was reduced to 0.1 to 100 nM
T1 construct: The reaction was initiated by the addition of the resuspended rat cerebral cortex tissue; tissue Harlan Industries, Cumberland, Ind; (animals); host or cells: cerebral cortex of male Sprague-Dawley rats, washed membranes
T1 sequence (P14842 whole entry): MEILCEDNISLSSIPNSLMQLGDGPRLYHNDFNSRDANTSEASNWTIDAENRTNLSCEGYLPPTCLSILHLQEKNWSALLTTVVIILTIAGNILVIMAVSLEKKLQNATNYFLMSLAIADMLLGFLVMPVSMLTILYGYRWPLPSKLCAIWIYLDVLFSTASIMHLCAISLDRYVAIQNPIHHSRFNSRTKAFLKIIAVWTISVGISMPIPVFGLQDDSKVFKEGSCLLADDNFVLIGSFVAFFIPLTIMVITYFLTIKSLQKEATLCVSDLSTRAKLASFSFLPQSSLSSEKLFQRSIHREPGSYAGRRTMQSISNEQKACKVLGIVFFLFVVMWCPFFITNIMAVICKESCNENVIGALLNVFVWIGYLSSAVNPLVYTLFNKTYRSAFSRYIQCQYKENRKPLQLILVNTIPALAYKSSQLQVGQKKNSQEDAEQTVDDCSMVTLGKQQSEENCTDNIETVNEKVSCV
Method: The assays were conducted by the following procedures.
5-HT1c selective compounds can be identified using the following biological assay procedures. Compounds having a selective affinity for the 5-HT1c receptor have a low IC50 in the 5-HT1c receptor assay and a higher IC50 in the 5-HT2 receptor assay.
I. Biological Reagent Preparation.
Beef brain was removed immediately after slaughter, and choroid plexus were dissected over ice. Male Sprague-Dawley rats weighing 125-150 g (Harlan Industries, Cumberland, Ind.) were killed by decapitation. The brain of each was immediately removed and the cerebral cortex was dissected over ice. Tissues were homogenized in 9 volumes of 0.32 mol/L sucrose and centrifuged at 1,000×g for 10 minutes. The supernatant was centrifuged at 17,000×g for 20 minutes. The pellet was suspended in 100 volumes of 50 mM Tris-HCL (pH7.4), incubated at 37° C. for 10 minutes and centrifuged at 50,000×g for 10 minutes, and the process was repeated three times. The final pellets were frozen at -70° C. and used within 2 weeks. Pellets were rehydrated with physiological buffer prior to use.
Radioligand binding assays for 5-HT1c and 5-HT2 receptors were conducted according to described methods. The assays can be conducted as described by Hoyer D., Functional correlates of serotonin 5-HT1 recognition sites, J. Receptor Res 8, 59-81 (1988) and Hoyer D., Engel G., Kalkman HO Molecular pharmacology of 5-HT1 and 5-HT2 recognition sires in rat and pig brain membranes: Radio-ligand binding studies with [^3 H]5-HT, [^3 H]8-OH-DPAT, (-) [^125 I] iodocyanopindolol, [^3 H]mesulergine and [^3 H]ketanserin, Eur. J. Pharmacol. 118, 13-23 (1985).
For 5-HT2 receptor assays increasing concentrations of experimental compound, 50 mM Tris HCl buffer pH [7.4], and tritiated ketanserin (1 nM) (^3 H ligand) were combined in polystyrene tubes at room temperature. The reaction was initiated by the addition of the resuspended rat cerebral cortex tissue which had been preincubated at 37° C. for 20 minutes. The reaction mixture was incubated in a 37° C. water bath for 30 minutes.
The above assays were modified after a number of compounds had been screened to accomodate the unexpectedly high potency of the compounds of this invention in the 5-HT1c assay. The concentration range of the experimental compound in the assays was changed from [0.1 to 1000 (nM)] to [0.1 to 100 (nM)] to optimize the use of reagents and analysis time.
The reactions were terminated by rapid filtration, (Brandel Cell Harvestor), through Whatman GF/B glass filters that had been presoaked in Tris buffer pH [7.4]. The filters were then washed 2 times with 5 ml of ice cold Tris buffer pH [7.4]. Washed filters were placed in scintillation vials and 10 ml RedySolv, (Brandel), was added and samples were counted in a Searle D-300 beta counter. Means and standard error statistics were calculated for triplicate experimental determinations in certain cases. Mean values were obtained from three or more separate determinations. The incubation time for the reaction mixture was […] at 37° C.
The results of the evaluation of certain compounds of the present invention in the 5-HT1c and 5-HT2 binding assays are set forth below in Table II.

5-HT1c receptor [1] = molecular target: T2, 5-HT1c receptor (Bos taurus, UniProt A0AAA9SBU1); test: 5-HT1c receptor radioligand binding displacement assay ([3H]mesulergine, choroid plexus); design: species or system beef; conditions: beef choroid plexus; tritiated mesulergine 2.0 nM; pH 7.4; 37° C., 15 min
T2 construct: natural pool of RNA-edited forms
T2 sequence (A0AAA9SBU1 33-457): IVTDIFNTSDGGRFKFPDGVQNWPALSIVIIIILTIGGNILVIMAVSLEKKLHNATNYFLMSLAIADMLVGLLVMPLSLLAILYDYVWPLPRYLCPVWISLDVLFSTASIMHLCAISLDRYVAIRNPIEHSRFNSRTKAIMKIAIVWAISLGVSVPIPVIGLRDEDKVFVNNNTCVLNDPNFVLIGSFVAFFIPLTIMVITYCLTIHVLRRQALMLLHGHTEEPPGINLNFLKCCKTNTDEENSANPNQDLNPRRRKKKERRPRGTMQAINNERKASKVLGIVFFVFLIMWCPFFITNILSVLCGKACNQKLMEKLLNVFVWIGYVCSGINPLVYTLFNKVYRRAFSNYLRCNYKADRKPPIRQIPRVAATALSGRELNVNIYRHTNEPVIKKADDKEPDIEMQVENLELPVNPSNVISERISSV
Method: (§1) Beef brain was removed immediately after slaughter, and choroid plexus were dissected over ice. […] The brain of each was immediately removed and the cerebral cortex was dissected over ice. Tissues were homogenized in 9 volumes of 0.32 mol/L sucrose and centrifuged at 1,000×g for 10 minutes. The supernatant was centrifuged at 17,000×g for 20 minutes. The pellet was suspended in 100 volumes of 50 mM Tris-HCL (pH7.4), incubated at 37° C. for 10 minutes and centrifuged at 50,000×g for 10 minutes, and the process was repeated three times. The final pellets were frozen at -70° C. and used within 2 weeks. Pellets were rehydrated with physiological buffer prior to use.
(§2) For 5-HT1c receptor assays increasing concentrations of experimental compound, 50 mM Tris HCl buffer pH[7.4], and tritiated mesulergine (2.0 nM) (^3 H ligand) were combined in polystyrene tubes at room temperature. The reaction was initiated by the addition of the resuspended choroid plexus tissue which had been preincubated at 37° C. for 20 minutes. The reaction mixture was incubated in a 37° C. water bath for 15 minutes.
(§3) The reactions were terminated by rapid filtration, (Brandel Cell Harvestor), through Whatman GF/B glass filters that had been presoaked in Tris buffer pH [7.4]. The filters were then washed 2 times with 5 ml of ice cold Tris buffer pH [7.4]. Washed filters were placed in scintillation vials and 10 ml RedySolv, (Brandel), was added and samples were counted in a Searle D-300 beta counter. Means and standard error statistics were calculated for triplicate experimental determinations in certain cases. Mean values were obtained from three or more separate determinations. The incubation time for the reaction mixture was 15 minutes at 37° C.

5-HT1c receptor [2] = test: as above; design: species or system beef; conditions: 5-HT1c versus 5-HT2, from Table II
Method: as §1, §2, §3

Compound | IC50 (5-HT2 receptor) | IC50 (5-HT1c receptor [1]) | 5-HT1c selectivity (low IC50 in 5-HT1c assay, higher IC50 in 5-HT2 assay) (5-HT1c receptor [2])
CC(C)c1ccc2[nH]c3c(c2c1)CCNC3C(C)c1cccc2ccccc12 (racemic) [Example 4, hydrochloride] | > 100 nM | 14 nM | 
COc1cccc2c3c([nH]c12)C(Cc1cccc2ccccc12)NCC3 (racemic) [Example 8, (±) 8-methoxy-1-(1-naphthalenylmethyl)-1,2,3,4-tetrahydro-9H-pyrido[3,4-b]indole] | 65 nM | 63 nM | 
Brc1cccc2c3c([nH]c12)C(Cc1cccc2ccccc12)NCC3 (racemic) [Example 6, (±) 8-bromo-1-(1-naphthalenylmethyl)-1,2,3,4-tetrahydro-9H-pyrido[3,4-b]indolehydrochloride] | 40 nM | 13.2 nM | 
Brc1ccc2[nH]c3c(c2c1)CCNC3Cc1cccc2ccccc12 (racemic) [Example 9, (±) 6-bromo-1-(1-naphthalenylmethyl)-1,2,3,4-tetrahydro-9H-pyrido[3,4-b]indole] | 87 nM | 27 nM | 
CC(C)(C)c1ccc2[nH]c3c(c2c1)CCNC3Cc1cccc2ccccc12 (racemic) [Example 15, (±) 6-(1,1-dimethylethyl)-1,2,3,4-tetrahydro-1-(1-naphthalenylmethyl)-9H-pyrido[3,4b]indole] | > 100 nM | 11 nM | particularly 5-HT1c selective
COc1ccc(CC2NCCc3c2[nH]c2ccc(C)cc32)c2ccccc12 (racemic) [Example 1, (±) 6-methyl-1-(1-(4-methoxynaphthalenyl)methyl)-1,2,3,4-tetrahydro-9H-pyrido[3,4-b]indole hydrochloride] | 56.1 nM | 6.4 nM | 
CC(C)c1ccc2[nH]c3c(c2c1)CCNC3Cc1cccc2ccccc12 (racemic) [Example 16, (±) 6-(1-methylethyl)-1,2,3,4-tetrahydro-1-(1-naphthalenylmethyl)-9H-pyrido[3,4b]indole] | > 100 nM | 9 nM | particularly 5-HT1c selective

Now from value to compound, other results behind:

IC50 (5-HT2 receptor) | IC50 (5-HT1c receptor [1]) | Compound | 5-HT1c selectivity (low IC50 in 5-HT1c assay, higher IC50 in 5-HT2 assay) (5-HT1c receptor [2])
267 nM | 30 nM | Cc1ccc2[nH]c3c(c2c1)CCNC3Cc1cccc2ccccc12 (racemic) [Example 5, (±) 6-methyl-1-(1-naphthalenylmethyl)-1,2,3,4-tetrahydro-9H-pyrido[3,4-b]indole hydrochloride] | 
> 100 nM | 6 nM | Cc1ccc2[nH]c3c(c2c1)CCNC3C(C)c1cccc2ccccc12 (racemic) [Example 3, (±) 6-methyl-1-(1-naphthalenyl-1-ethyl)-1,2,3,4-tetrahydro-9H-pyrido[3,4-b]indole] | 
108 nM | < 100 nM | Cc1ccc2[nH]c3c(c2c1)CCN[C@H]3Cc1cccc2ccccc12 [Example 18, (-)-(S)-6-methyl-1,2,3,4-tetrahydro-1-(1-naphthalenylmethyl)-9H-pyrido[3,4-b]indole hydrochloride] | 
> 100 nM | 189 nM | c1ccc2c(CC3NCCc4c3[nH]c3ccc(C5CCCCC5)cc43)cccc2c1 (racemic) [Example 11, (±) 6-cyclohexyl-1-(1-naphthalenylmethyl)-1,2,3,4-tetrahydro-9H-pyrido[3,4-b]indole hydrochloride] | 
> 100 nM | 54 nM | Cc1ccc2[nH]c3c(c2c1)CCN(C)C3Cc1cccc2ccccc12 (racemic) [Example 12, (±) 2,6-dimethyl-1-(1-naphthalenylmethyl)-1,2,3,4-tetrahydro-9H-pyrido[3,4-b]indole hydrochloride] | 
> 100 nM | 23 nM | Cc1ccc2c(c1)c1c(n2C)C(Cc2cccc3ccccc23)NCC1 (racemic) [Example 17, (±) 6,9-dimethyl-1,2,3,4-tetrahydro-1-(1-naphthalenylmethyl)-9H-pyrido[3,4-b]indole hydrochloride] | 
> 100 nM | 16 nM | Cc1ccc2[nH]c3c(c2c1F)CCNC3Cc1cccc2ccccc12 (racemic) [Example 13, (±) 5-fluoro-6-methyl-1-(1-naphthalenylmethyl)-1,2,3,4-tetrahydro-9H-pyrido[3,4-b]indole] | 
> 100 nM | 61 nM | c1ccc2c(CC3NCCc4c3[nH]c3c4ccc4ccccc43)cccc2c1 (racemic) [Example 14, (±) 7,8,9,10-tetrahydro-10-(1-naphthalenylmethyl)-11H-benzo[g]pyrido[3,4-b]indole] | 
247 nM | 60 nM | Cc1cc(Br)c2[nH]c3c(c2c1)CCNC3Cc1cccc2ccccc12 (racemic) [Example 7, (±) 6-methyl-8-bromo-1-(1-naphthalenylmethyl)-1,2,3,4-tetrahydro-9H-pyrido[3,4-b]indole] | 
142 nM | 44 nM | Cc1ccc2c3c([nH]c2c1Br)C(Cc1cccc2ccccc12)NCC3 (racemic) [Example 10, (±) 7-methyl-8-bromo-1-(1-naphthalenylmethyl)-1,2,3,4-tetrahydro-9H-pyrido[3,4-b]indole hydrochloride] | 
